Results: patent publication US9260467B2, “Sialic acid dimers” (priority 2011, dated 2016)

target: T1, Siglec-2 (CD22) (Homo sapiens, UniProt P20273); assay: new affinity assay: displacement of biotinylated compound 155 from sialidase-treated Daudi cells, FACS with streptavidin-PE; assay type: binding; design: endogenous in cells; host or cells: Daudi (human B-cell lymphoma line); conditions: Table II; rIP values set relative to compound 38; Daudi cells, displacement of compound 155
T1 sequence (P20273 20-847): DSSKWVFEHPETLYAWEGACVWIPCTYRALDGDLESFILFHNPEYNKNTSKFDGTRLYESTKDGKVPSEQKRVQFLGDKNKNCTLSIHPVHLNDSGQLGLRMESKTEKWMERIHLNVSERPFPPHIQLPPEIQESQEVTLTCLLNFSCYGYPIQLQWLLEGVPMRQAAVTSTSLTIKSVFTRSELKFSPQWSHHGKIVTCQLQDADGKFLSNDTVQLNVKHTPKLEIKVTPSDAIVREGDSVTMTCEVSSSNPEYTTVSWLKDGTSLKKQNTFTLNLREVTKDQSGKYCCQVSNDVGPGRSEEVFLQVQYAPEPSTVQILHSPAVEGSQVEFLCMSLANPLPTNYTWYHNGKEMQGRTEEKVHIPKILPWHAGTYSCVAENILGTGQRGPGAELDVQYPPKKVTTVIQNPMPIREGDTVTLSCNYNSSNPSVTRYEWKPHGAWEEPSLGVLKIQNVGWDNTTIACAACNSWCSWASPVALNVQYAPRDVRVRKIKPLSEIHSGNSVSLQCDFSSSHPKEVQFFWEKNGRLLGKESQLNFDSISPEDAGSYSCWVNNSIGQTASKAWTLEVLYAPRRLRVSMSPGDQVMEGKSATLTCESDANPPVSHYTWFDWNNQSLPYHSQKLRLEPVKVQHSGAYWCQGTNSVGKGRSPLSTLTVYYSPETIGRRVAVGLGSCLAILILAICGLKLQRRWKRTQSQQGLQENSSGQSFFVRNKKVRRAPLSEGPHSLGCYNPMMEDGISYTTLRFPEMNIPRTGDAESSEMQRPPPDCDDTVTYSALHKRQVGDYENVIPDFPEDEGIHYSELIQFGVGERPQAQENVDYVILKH
Protocol: To determine the affinity of the compound of the formula (I), approximately 5×10^6 to 2×10^8 cells of the human B-cell lymphoma line “Daudi” were incubated with sialidase (A. ureafaciens) at 37° C. for 1 h (final concentration 0.1 unit/ml). […] Batches of 1-2×10^6 cells were transferred to sample vessels, and incubated on ice for 15 min with serial concentrations (10-fold dilutions, 1 mM to 1×10^−7 mM) of the substance under measurement (inhibitor). The reaction volume was 50 μl. Then 50 microliters of compound 155 (4-micromolar) were added, and incubation took place for 20 min Washing with FACS buffer (PBS, 0.1 BSA, 0.01% sodium azide) was followed by incubation with streptavidin-PE in the dark for 15 min, followed by washing and measurement of the bound amount of […] via the streptavidin-PE in the FACS. For the determination of 0% displacement of the compound 155, cells without inhibitor were measured. For the determination of 100% displacement, cells were measured without compound 155 and without inhibitor. For each assay, four substances and one reference were measured. The IC50 values determined in each assay were subsequently converted into values of rIP (relative Inhibitory Potency). […]

In order of rising rIP:
1. CC(=O)N[C@H]1[C@H]([C@H](O)[C@H](O)Cn2cc(-c3ccccc3)nn2)O[C@@](OCCCSCCNC(=O)c2ccc(C(=O)NCCSCCCO[C@]3(C(=O)[O-])C[C@H](O)[C@@H](NC(C)=O)[C@H]([C@H](O)[C@H](O)Cn4cc(-c5ccccc5)nn4)O3)cc2)(C(=O)[O-])C[C@@H]1O.[Na+].[Na+] [Compound 95]  6
2. CC(=O)N[C@H]1[C@H]([C@H](O)[C@H](O)CNC(=O)c2ccc(-c3ccccc3)cc2)O[C@](C(=O)[O-])(n2cc(CCCCNC(=O)c3ccc(C(=O)NCCCCc4cn([C@]5(C(=O)[O-])C[C@H](O)[C@@H](NC(C)=O)[C@H]([C@H](O)[C@H](O)CNC(=O)c6ccc(-c7ccccc7)cc6)O5)nn4)cc3)nn2)C[C@@H]1O.[Na+].[Na+] [Compound 110]  12
3. CC(=O)N[C@H]1[C@H]([C@H](O)[C@H](O)CNC(=O)Cc2ccc(-c3ccccc3)cc2)O[C@@](OCCCSCCNC(=O)c2ccc(-c3ccc(C(=O)NCCSCCCO[C@]4(C(=O)[O-])C[C@H](O)[C@@H](NC(C)=O)[C@H]([C@H](O)[C@H](O)CNC(=O)Cc5ccc(-c6ccccc6)cc5)O4)cc3)cc2)(C(=O)[O-])C[C@@H]1O.[Na+].[Na+] [Compound 128]  19
4. CC(=O)N[C@H]1[C@H]([C@H](O)[C@H](O)CNC(=O)c2ccc(-c3ccccc3)cc2)O[C@@](OCCCSCCNC(=O)CCC(=O)NCCSCCCO[C@]2(C(=O)[O-])C[C@H](O)[C@@H](NC(C)=O)[C@H]([C@H](O)[C@H](O)CNC(=O)c3ccc(-c4ccccc4)cc3)O2)(C(=O)[O-])C[C@@H]1O.[Na+].[Na+] [Compound 36]  23
5. CC(=O)N[C@H]1[C@H]([C@H](O)[C@H](O)CNC(=O)c2ccc3c(c2)C(=O)c2ccccc2-3)O[C@@](OCCCSCCNC(=O)c2ccc(C(=O)NCCSCCCO[C@]3(C(=O)[O-])C[C@H](O)[C@@H](NC(C)=O)[C@H]([C@H](O)[C@H](O)CNC(=O)c4ccc5c(c4)C(=O)c4ccccc4-5)O3)cc2)(C(=O)[O-])C[C@@H]1O.[Na+].[Na+] [Compound 78]  27
6. COc1ccccc1-c1ccc(C(=O)NC[C@@H](O)[C@@H](O)[C@@H]2O[C@@](OCCCSCCNC(=O)c3ccc(C(=O)NCCSCCCO[C@]4(C(=O)[O-])C[C@H](O)[C@@H](NC(C)=O)[C@H]([C@H](O)[C@H](O)CNC(=O)c5ccc(-c6ccccc6OC)cc5)O4)cc3)(C(=O)[O-])C[C@H](O)[C@H]2NC(C)=O)cc1.[Na+].[Na+] [Compound 74]  27
7. CC(=O)N[C@H]1[C@H]([C@H](O)[C@H](O)CNC(=O)c2ccc(-c3ccccc3)cc2)O[C@@](OCCCSCCNCc2ccc(CNCCSCCCO[C@]3(C(=O)[O-])C[C@H](O)[C@@H](NC(C)=O)[C@H]([C@H](O)[C@H](O)CNC(=O)c4ccc(-c5ccccc5)cc4)O3)cc2)(C(=O)[O-])C[C@@H]1O.[Na+].[Na+] [Compound 52]  31
8. CC(=O)N[C@H]1[C@H]([C@H](O)[C@H](O)CNC(=O)/C=C/c2ccccc2)O[C@@](OCCCSCCNC(=O)c2ccc(C(=O)NCCSCCCO[C@]3(C(=O)[O-])C[C@H](O)[C@@H](NC(C)=O)[C@H]([C@H](O)[C@H](O)CNC(=O)/C=C/c4ccccc4)O3)cc2)(C(=O)[O-])C[C@@H]1O.[Na+].[Na+] [Compound 83]  73
9. CC(=O)N[C@H]1[C@H]([C@H](O)[C@H](O)CNC(=O)c2ccc(-c3ccccn3)cc2)O[C@@](OCCCSCCNC(=O)c2ccc(C(=O)NCCSCCCO[C@]3(C(=O)[O-])C[C@H](O)[C@@H](NC(C)=O)[C@H]([C@H](O)[C@H](O)CNC(=O)c4ccc(-c5ccccn5)cc4)O3)cc2)(C(=O)[O-])C[C@@H]1O.[Na+].[Na+] [Compound 77]  95
10. CC(=O)N[C@H]1[C@H]([C@H](O)[C@H](O)CNC(=O)c2ccc(-c3ccccc3)cc2)O[C@@](OCCCSCCNC(=O)Cc2ccc(CC(=O)NCCSCCCO[C@]3(C(=O)[O-])C[C@H](O)[C@@H](NC(C)=O)[C@H]([C@H](O)[C@H](O)CNC(=O)c4ccc(-c5ccccc5)cc4)O3)cc2)(C(=O)[O-])C[C@@H]1O.[Na+].[Na+] [Compound 28]  129
11. CC(=O)N[C@H]1[C@H]([C@H](O)[C@H](O)CNC(=O)Cc2ccc(-c3ccccc3)cc2)O[C@@](OCCCSCCNC(=O)c2ccc(C(=O)NCCSCCCO[C@]3(C(=O)[O-])C[C@H](O)[C@@H](NC(C)=O)[C@H]([C@H](O)[C@H](O)CNC(=O)Cc4ccc(-c5ccccc5)cc4)O3)cc2)(C(=O)[O-])C[C@@H]1O.[Na+].[Na+] [Compound 79]  181
12. CC(=O)N[C@H]1[C@H]([C@H](O)[C@H](O)CNC(=O)c2ccc(-c3ccccc3)cc2)O[C@@](OCCCSCCNC(=O)c2ccc(C(=O)NCCSCCCO[C@]3(C(=O)[O-])C[C@H](O)[C@@H](NC(C)=O)[C@H]([C@H](O)[C@H](O)CNC(=O)c4ccc(C5CCCCC5)cc4)O3)cc2)(C(=O)[O-])C[C@@H]1O.[Na+].[Na+] [Compound 103]  185
13. CC(=O)N[C@H]1[C@H]([C@H](O)[C@H](O)CNC(=O)Cc2ccc3ccccc3c2)O[C@@](OCCCSCCNC(=O)c2ccc(C(=O)NCCSCCCO[C@]3(C(=O)[O-])C[C@H](O)[C@@H](NC(C)=O)[C@H]([C@H](O)[C@H](O)CNC(=O)Cc4ccc5ccccc5c4)O3)cc2)(C(=O)[O-])C[C@@H]1O.[Na+].[Na+] [Compound 66]  197
14. CC(=O)N[C@H]1[C@H]([C@H](O)[C@H](O)CNC(=O)c2ccc(-c3cccs3)s2)O[C@@](OCCCSCCNC(=O)c2ccc(C(=O)NCCSCCCO[C@]3(C(=O)[O-])C[C@H](O)[C@@H](NC(C)=O)[C@H]([C@H](O)[C@H](O)CNC(=O)c4ccc(-c5cccs5)s4)O3)cc2)(C(=O)[O-])C[C@@H]1O.[Na+].[Na+] [Compound 62]  203
15. CC(=O)N[C@H]1[C@H]([C@H](O)[C@H](O)CNC(=O)c2ccc(-c3ccccc3)cc2)O[C@@](OCCCSCCC(=O)Nc2ccccc2NC(=O)CCSCCCO[C@]2(C(=O)[O-])C[C@H](O)[C@@H](NC(C)=O)[C@H]([C@H](O)[C@H](O)CNC(=O)c3ccc(-c4ccccc4)cc3)O2)(C(=O)[O-])C[C@@H]1O.[Na+].[Na+] [Compound 42]  359
16. CC(=O)N[C@H]1[C@H]([C@H](O)[C@H](O)CNC(=O)c2ccc(-c3ccccc3)cc2)O[C@@](OCCCSCC(NC(=O)c2ccc(C(=O)NC(CSCCCO[C@]3(C(=O)[O-])C[C@H](O)[C@@H](NC(C)=O)[C@H]([C@H](O)[C@H](O)CNC(=O)c4ccc(-c5ccccc5)cc4)O3)C(=O)[O-])cc2)C(=O)[O-])(C(=O)[O-])C[C@@H]1O.[Na+].[Na+].[Na+].[Na+] (some centres unmarked) [Compound 149]  378
17. CC(=O)N[C@H]1[C@H]([C@H](O)[C@H](O)CNC(=O)c2ccc(-c3ccccc3)cc2)O[C@@](OCCCSCCNC(=O)c2ccc(C(=O)NCCSCCCO[C@]3(C(=O)[O-])C[C@H](O)[C@@H](NC(C)=O)[C@H]([C@H](O)[C@H](O)CNC(=O)c4ccc(-c5ccccc5)cc4)O3)c3ccccc23)(C(=O)[O-])C[C@@H]1O.[Na+].[Na+] [Compound 34]  899
18. CC(=O)N[C@H]1[C@H]([C@H](O)[C@H](O)CNC(=O)c2ccc(-c3ccc(O)cc3)cc2)O[C@@](OCCCSCCNC(=O)c2ccc(C(=O)NCCSCCCO[C@]3(C(=O)[O-])C[C@H](O)[C@@H](NC(C)=O)[C@H]([C@H](O)[C@H](O)CNC(=O)c4ccc(-c5ccc(O)cc5)cc4)O3)cc2)(C(=O)[O-])C[C@@H]1O.[Na+].[Na+] [Compound 67]  1959
19. CC(=O)N[C@H]1[C@H]([C@H](O)[C@H](O)CNC(=O)c2ccc(-c3ccsc3)cc2)O[C@@](OCCCSCCNC(=O)c2ccc(C(=O)NCCSCCCO[C@]3(C(=O)[O-])C[C@H](O)[C@@H](NC(C)=O)[C@H]([C@H](O)[C@H](O)CNC(=O)c4ccc(-c5ccsc5)cc4)O3)cc2)(C(=O)[O-])C[C@@H]1O.[Na+].[Na+] [Compound 81]  2068
20. CC(=O)N[C@H]1[C@H]([C@H](O)[C@H](O)CNC(=O)c2ccc(-c3cccs3)cc2)O[C@@](OCCCSCCNC(=O)c2ccc(C(=O)NCCSCCCO[C@]3(C(=O)[O-])C[C@H](O)[C@@H](NC(C)=O)[C@H]([C@H](O)[C@H](O)CNC(=O)c4ccc(-c5cccs5)cc4)O3)cc2)(C(=O)[O-])C[C@@H]1O.[Na+].[Na+] [Compound 80]  14342
